{"source": "patent US20250099554A1", "about": "“COMPOSITIONS AND METHODS OF FAS INHIBITION” (ONL Therapeutics, Inc., priority 2018, published 2025)", "key": {"[1]": {"system": "retinal ganglion cells (RGCs) and axons", "assay": "RGC (Brn3a) and axon (PPD) density in microbead-induced mouse model of elevated IOP", "format": "in vivo, C57BL/6J mice", "method": "(§1) C57BL/6J mice were used in this experiment in which 2 μL of sterile polystyrene microbeads (15 μm; 7.2×10^6 bead/mL) or saline were injected into the anterior chamber on Day 0 followed by 1 μL of 0.5 mg/mL or 2 mg/mL Compound 1 or vehicle by intravitreal (IVT) injection on Day 0 or 7 days after the microbead/saline injections. IOP was followed every 3 days for 4 weeks using a rebound tonometer (TonoLab). At 4 weeks post anterior chamber injection, retinal flatmounts were prepared and stained for Brn3a, an RGC-specific protein, to visualize RGCs. Sixteen non-overlapping images were taken, at 60× with 4-5 images within each quadrant and the images were used to calculate the RGC density. For axon analysis, optic nerves were stained with p-phenylenediamine (PPD) to visualize myelinated axons and 10 non-overlapping photomicrographs were taken at 100× magnification covering the entire area of the optic nerve cross-section, and these images were used to calculate the axon density. Quantitative PCR (qPCR) was also performed on retinal tissue isolated from the mice at 28 days post microbead/saline injections. To assess production of mature IL-1β (p17), protein lysates (20 μg per sample) were prepared from posterior eye cups (neural retina, choroid, and sclera) at 28 days post microbead/saline injections and analyzed by Western blot and densitometry. All data are presented as mean±SEM. One-way ANOVA and the Sidak multiple-comparison test were used for analysis of RGCs and axons. A p value<0.05 was considered significant."}, "[2]": {"system": "mature IL-1β (p17)", "assay": "Western blot and densitometry of mature IL-1β (p17) in posterior eye cups", "format": "in vivo, C57BL/6J mice", "method": "as §1, with “For axon analysis, optic nerves were stained with p-phenylenediamine (PPD) to visualize myelinated axons and 10 non-overlapping photomicrographs were taken at 100× magnification covering the entire area of the optic nerve cross-section, and these images were used to calculate the axon density.” left out, “All data are presented as mean±SEM. One-way ANOVA and the Sidak multiple-comparison test were used for analysis of RGCs and axons. A p value<0.05 was considered significant.” left out\nQuantitative PCR was performed on neural retina isolated at 28 days post microbead injection from mice treated with ONL1204 (or vehicle) on Day 0. […] For analysis of mature IL-1β (p17) production, protein lysates ([…] per sample) were prepared from posterior eye cups (neural retina, choroid, and sclera) and analyzed by Western blot."}, "[3]": {"system": "neural retina gene expression following elevated IOP", "assay": "qPCR of neural retina after microbead-induced elevation of IOP (Example 1)", "format": "in vivo, mice", "source_text": "Quantitative PCR (qPCR) was used on neural retina samples isolated at 28 days post microbead or saline injection from mice treated with Compound 1 (or vehicle) on Day 0.\nData shown are mRNA expression fold change over saline+vehicle control+/−SEM. N=6/group, **P<0.01, ***P<0.001, ****P<0.0001.\nA 96-well was expanded to a 384-well qPCR system to allow for an increase in the number of genes to be examined in one run.\nFor this qPCR analysis, saline+vehicle was used as the control. DDCt=experimental DCt−mean DCt of saline+vehicle, and Expression Fold Change=2^−DDCt."}, "[4]": {"system": "neural retina inflammatory gene expression", "assay": "qPCR of neural retina at 28 days post microbead injection (Example 2)", "format": "in vivo, C57BL/6J mice", "conditions": "treated on Day 0", "method": "as §1\nQuantitative PCR was performed on neural retina isolated at 28 days post microbead injection from mice treated with ONL1204 (or vehicle) on Day 0. Data shown are mRNA expression fold change over saline controls+/−SEM. N=4/group, *P<0.05, **P<0.01. For analysis of mature IL-1β (p17) production, protein lysates ([…] per sample) were prepared from posterior eye cups (neural retina, choroid, and sclera) and analyzed by Western blot."}, "[5]": {"system": "retinal microglia/macrophages", "assay": "Iba1 staining of retinal whole mounts, microglia/macrophage activation", "format": "in vivo, C57BL/6J mice", "conditions": "28 days post microbead injection, treated at Day 0", "method": "FIG. 12 depicts representative confocal images of retinal whole mounts at 28 days post microbead injection from mice treated with ONL1204 (or vehicle) at Day 0. Retinal whole mounts were stained with Iba1 (microglia/macrophage). Yellow arrows indicate homeostatic microglia with dendritic morphology; blue arrows indicate activated microglia and/or infiltrating macrophages with amoeboid morphology. Morphometric analysis was performed on Iba1+cells in the ganglion cell layer (60 cells per retina) and the longest process length measured from the edge of the cell body (in […]) was used to quantitate microglia activation."}, "[6]": {"assay": "IOP by rebound tonometer in microbead-induced mouse model of elevated IOP", "format": "in vivo, C57BL/6J mice", "method": "as §1, with “One-way ANOVA and the Sidak multiple-comparison test were used for analysis of RGCs and axons. A p value<0.05 was considered significant.” left out"}, "[7]": {"conditions": "0.5 mg/ml, 1 μL IVT at Day 0, 4 weeks"}, "[8]": {"conditions": "2.0 mg/mL IVT at Day 7 post-microbead injection, compared to saline plus vehicle controls"}, "[9]": {"conditions": "2 mg/ml, 1 μL IVT at Day 0, 4 weeks"}, "[10]": {"conditions": "28 days post microbead injection, treated Day 0"}, "[11]": {"conditions": "28 days post microbead injection, treated Day 0, vs microbeads and vehicle"}}, "note": "Entries after “also recorded” stand apart in the source; their conditions may differ. Where a SMILES comes first, the peptide text is derived from it."}
{"molecule": "CC[C@H](C)[C@H](NC(=O)[C@H](Cc1ccc(O)cc1)NC(=O)[C@H](CC(N)=O)NC(=O)[C@@H](NC(=O)[C@H](C)NC(=O)CNC(=O)[C@H](CC(C)C)NC(=O)[C@H](Cc1ccc(O)cc1)NC(=O)[C@@H](NC(=O)[C@H](Cc1cnc[nH]1)NC(=O)[C@@H](N)Cc1cnc[nH]1)[C@@H](C)CC)C(C)C)C(=O)N[C@@H](Cc1ccc(O)cc1)C(N)=O", "note": "[Compound 1, His-His-Ile-Tyr-Leu-Gly-Ala-Val-Asn-Tyr-Ile-Tyr-amide] (H-HHIYLGAVNYIY-NH2)", "values": [{"measurement": "axon density", "setting": "[1]; [7]", "result": "statistically significant preservation"}, {"measurement": "retinal ganglion cell density", "setting": "[1]; [7]", "result": "statistically significant preservation"}, {"measurement": "axon density", "setting": "[1]; [8]", "result": "nearly total preservation"}, {"measurement": "retinal ganglion cell density", "setting": "[1]; [8]", "result": "nearly total preservation"}, {"measurement": "axon density", "setting": "[1]; [9]", "result": "statistically significant preservation"}, {"measurement": "retinal ganglion cell density", "setting": "[1]; [9]", "result": "statistically significant preservation"}, {"measurement": "production of mature IL-1β", "setting": "[2]; 28 days post microbead injection", "result": "reduced"}, {"measurement": "reduction in production of mature IL-1β by densitometry, compared to vehicle", "setting": "[2]; Western blot, following microbead injection", "result": "two-fold"}, {"measurement": "ASC gene expression", "setting": "[3]; 28 day time point", "result": "Limited or no change"}, {"measurement": "Bax gene expression", "setting": "[3]; 28 day time point", "result": "unaffected"}, {"measurement": "FADD gene expression", "setting": "[3]; 28 day time point", "result": "unaffected"}, {"measurement": "FasL gene expression", "setting": "[3]; 28 day time point", "result": "unaffected"}, {"measurement": "FasR gene expression", "setting": "[3]; 28 day time point", "result": "unaffected"}, {"measurement": "NLRP2 gene expression", "setting": "[3]; 28 day time point", "result": "Limited or no change"}, {"measurement": "caspase 3 gene expression", "setting": "[3]; 28 day time point", "result": "unaffected"}, {"measurement": "complement C4 gene expression", "setting": "[3]; 28 day time point", "result": "Limited or no change"}, {"measurement": "C1q gene expression", "setting": "[3]; [10]", "result": "significantly reduced"}, {"measurement": "Caspase 8 gene expression", "setting": "[3]; [10]", "result": "significantly reduced"}, {"measurement": "Complement C3 gene expression", "setting": "[3]; [10]", "result": "significantly reduced"}, {"measurement": "NLRP3 gene expression", "setting": "[3]; [10]", "result": "significantly reduced"}, {"measurement": "TLR4 gene expression", "setting": "[3]; [10]", "result": "significantly reduced"}, {"measurement": "cFLIP gene expression (pro-survival)", "setting": "[3]; 28 days post microbead injection, treated Day 0, decreased in microbead controls", "result": "restored to near-baseline"}, {"measurement": "GFAP gene expression", "setting": "[3]; [11]", "result": "significantly reduced"}, {"measurement": "IL-1β gene expression", "setting": "[3]; [11]", "result": "significantly reduced"}, {"measurement": "IL-6 gene expression", "setting": "[3]; [11]", "result": "significantly reduced"}, {"measurement": "IL-18 gene expression", "setting": "[3]; [11]", "result": "significantly reduced"}, {"measurement": "IP-10 gene expression", "setting": "[3]; [11]", "result": "significantly reduced"}, {"measurement": "MCP-1 gene expression", "setting": "[3]; [11]", "result": "significantly reduced"}, {"measurement": "MIP1α gene expression", "setting": "[3]; [11]", "result": "significantly reduced"}, {"measurement": "MIP2 gene expression", "setting": "[3]; [11]", "result": "significantly reduced"}, {"measurement": "MIP-1β gene expression", "setting": "[3]; [11]", "result": "significantly reduced"}, {"measurement": "TNFα gene expression", "setting": "[3]; [11]", "result": "significantly reduced"}, {"measurement": "CCL2/MCP-1 gene expression", "setting": "[4]", "result": "substantially inhibited"}, {"measurement": "CCL3/MIP-1α gene expression", "setting": "[4]", "result": "substantially inhibited"}, {"measurement": "TNF-α gene expression", "setting": "[4]", "result": "substantially inhibited"}, {"measurement": "microglial/macrophage activation", "setting": "[5]", "result": "inhibits; also recorded: reduced number of activated microglia/macrophages"}, {"measurement": "effect on IOP", "setting": "[6]; IVT injection on Day 7 post microbeads", "result": "did not affect"}, {"measurement": "effect on IOP", "setting": "[6]; IVT injection on the same day as the microbeads", "result": "did not affect"}]}
